Data: patent US20070105898A1, “Process for the production of cilostazol” (Apotex Pharmachem Inc., priority 2005, published 2007)

Experiment: Particle size distribution of precipitated cilostazol particles
Assay type: physicochemical
Conditions: filtered, dried
Experimental: A hot solution (70-75° C.) of cilostazol (23 g) in 1-methyl-2-pyrrolidinone (69 mL) was slowly added over a period of 5-10 min into water (345 mL) at 0-5° C. with stirring. The suspension was stirred at 0-5° C. for 1-2 hrs, filtered and rinsed with water (40 mL) and methanol (20 mL). The solid was dried under vacuum at 55-60° C. to give 22.1 g (yield 96%) cilostazol as a white powder. Particle size distribution: d(0.1)=0.71 micrometres, d(0.5)=5.94 mircrometres, d(0.9)=30.59 micrometres.
A hot solution (70-75° C.) of cilostazol (20 g) in 1-methyl-2-pyrrolidinone (40 mL) was slowly added over a period of 5-10 min into toluene (250 mL) at 0-5° C. with stirring. The suspension was stirred at 0-5° C. for 1-2 hrs, filtered and rinsed with toluene (100 mL). The solid was dried under vacuum at 55-60° C. to give 18.2 g (yield 91%) cilostazol as a white powder. Particle size distribution: d(0.1)=0.80 micrometres, d(0.5)=3.90 mircrometres, d(0.9)=25.56 micrometres.

[1] = Example 2: hot 1-methyl-2-pyrrolidinone solution added into water at 0-5° C.
[2] = Example 3: hot 1-methyl-2-pyrrolidinone solution added into toluene at 0-5° C.

O=C1CCc2cc(OCCCCc3nnnn3C3CCCCC3)ccc2N1 [cilostazol, 6-[4-(1-cyclohexyl-1H-tetrazol-5-yl)butoxy]-3,4-dihydro-2(1H)-quinolinone]
Particle size distribution d(0.1) [1]: 0.71 micrometres | Particle size distribution d(0.5) [1]: 5.94 mircrometres | Particle size distribution d(0.9) [1]: 30.59 micrometres | Particle size distribution d(0.1) [2]: 0.80 micrometres | Particle size distribution d(0.5) [2]: 3.90 mircrometres | Particle size distribution d(0.9) [2]: 25.56 micrometres
